# US20110251379A1, “COMPOUNDS USEFUL FOR TREATING NEURODEGENERATIVE DISORDERS” (Satori Pharmaceuticals, Inc., priority 2010, published 2011)
# pIC50: −log10 of the molar value. Like-named read-outs stand apart in the source and are kept apart here.
# Assays:
# Assay type in all cases: cell-based
# [1] = test system: Aβ-38; assay: MSD Human (6E10) Ab 3-PLEX elisa, conditioned media of 2B7 cells: Aβ-38; details: for pIC50: Aβ-38 (superscript a)
# How it was run: (§1)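 Confluent 2B7 cells were treated with compounds for 5 hours at 37° C in media with 1% DMSO. Conditioned media, diluted 1:1 in blocking buffer, was incubated overnight at 4 °C or 2 h at room temperature on MSD 6E10 plates. Aβ levels were read against seven-point standard curves, and IC50 was obtained from 4-parameter fits of percent vehicle.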
# [2] = test system: Aβ-42; assay: MSD Human (6E10) Ab 3-PLEX elisa, conditioned media of 2B7 cells: Aβ-42; details: for pIC50: Aβ-42 (superscript c)
# How it was run: as §1
# [3] = test system: Aβ-40; assay: MSD Human (6E10) Ab 3-PLEX elisa, conditioned media of 2B7 cells: Aβ-40; details: for pIC50: Aβ-40 (superscript b)
# How it was run: as §1
# [4] = Homo sapiens, read-out: 50% reduction value
SMILES,pIC50 ([2]; read-out: IC50 range),pIC50 ([1]; read-out: 50% reduction value),pIC50 ([2]; read-out: 50% reduction value),pIC50 ([3]; read-out: 50% reduction value),other results
CC(=O)O[C@@H]([C@H]1C[C@@H](C)[C@H]2[C@H](O1)C(=O)[C@@]1(C)[C@@H]3CC[C@H]4C(C)(C)[C@@H](O[C@H]5CN(CC(N)=O)CCO5)CC[C@@]45C[C@@]35CC[C@]21C)C(C)(C)O [drawing 1202],–,–,–,–,"pIC50 [1, 4]: > 6.00; pIC50 ([1]; Homo sapiens, read-out: IC50 range): > 6.00; inhibition at 20 µM ([2]; Homo sapiens, Aβ-42, 20 μM): 25 to 75%; pIC50 [3, 4]: > 6.00"
CC1CC(CO)OC2C1C1(C)CCC34CC35CCC(OC3OCC(O)C(O)C3O)C(C)(C)C5CCC4C1(C)C2O (stereo not shown) [drawing 1203],< 5.00,–,–,–,"% Inh. (range) ([1]; Aβ-38, 100 μM): E^a (100 μM) E^b (100 μM) (% inhibition of 25-75%); % Inh. (range) ([3]; Aβ-40, 100 μM): E^a (100 μM) E^b (100 μM) (% inhibition of 25-75%)"
CC(=O)OC(C1CC(C)C2C(O1)C(O)C1(C)C3CCC4C(C)(C)C(OC5CN(S(C)(=O)=O)CCO5)CCC45CC35CCC21C)C(C)(C)O (stereo not shown) [drawing 1204],> 6.00,> 6.00,> 6.00,–,"% Inh. (range) ([3]; Aβ-40, 100 μM): E^b (100 μM) (% inhibition of 25-75%)"
CC(=O)OC(C1CC(C)C2C(O1)C(O)C1(C)C3CCC4C(C)(C)C(OC(=O)C5CNC5)CCC45CC35CCC21C)C(C)(C)O (stereo not shown) [drawing 1205],> 6.00,> 6.00,> 6.00,> 6.00,pIC50 ([1]; read-out: IC50 range): > 6.00; pIC50 ([3]; read-out: IC50 range): 5.00 to 6.00
CC(=O)OCC1CC(C)C2C(O1)C(O)C1(C)C3CCC4C(C)(C)C(OC5OCC(O)C(O)C5O)CCC45CC35CCC21C (stereo not shown) [drawing 1206],–,–,–,–,"% Inh. (range) ([1]; Aβ-38, 20 μM): E^a (20 μM) E^b (20 μM) E^c (20 μM) (% inhibition of 25-75%); % Inh. (range) ([2]; Aβ-42, 20 μM): E^a (20 μM) E^b (20 μM) E^c (20 μM) (% inhibition of 25-75%); % Inh. (range) ([3]; Aβ-40, 20 μM): E^a (20 μM) E^b (20 μM) E^c (20 μM) (% inhibition of 25-75%)"
CC(=O)N(Cc1ccccc1)CC1CC(C)C2C(O1)C(O)C1(C)C3CCC4C(C)(C)C(O)CCC45CC35CCC21C (stereo not shown) [drawing 1207],> 6.00,5.00 to 6.00,5.00 to 6.00,5.00 to 6.00,–
CC1CC(C(=O)O)OC2C1C1(C)CCC34CC35CCC(O)C(C)(C)C5CCC4C1(C)C2O (stereo not shown) [drawing 1208],–,–,–,–,"% Inh. (range) ([1]; Aβ-38, 20 μM): F^a (20 μM) F^b (20 μM) F^c (20 μM) (% inhibition of <25%); % Inh. (range) ([2]; Aβ-42, 20 μM): F^a (20 μM) F^b (20 μM) F^c (20 μM) (% inhibition of <25%); % Inh. (range) ([3]; Aβ-40, 20 μM): F^a (20 μM) F^b (20 μM) F^c (20 μM) (% inhibition of <25%)"
CCC(=O)OC(C1CC(C)C2C(O1)C(O)C1(C)C3CCC4C(C)(C)C(OC5CN(C6COC6)CCO5)CCC45CC35CCC21C)C(C)(C)O (stereo not shown) [drawing 1209],–,> 6.00,> 6.00,5.00 to 6.00,pIC50 ([1]; read-out: IC50 range): > 6.00; pIC50 ([3]; read-out: IC50 range): 5.00 to 6.00
CC(=O)OCC1CC(C)C2C(O1)C(O)C1(C)C3CCC4C(C)(C)C(OC(=O)c5cccnc5)CCC45CC35CCC21C (stereo not shown) [drawing 1210],5.00 to 6.00,5.00 to 6.00,5.00 to 6.00,5.00 to 6.00,pIC50 ([3]; read-out: IC50 range): < 5.00
CC(=O)N(Cc1cc(F)cc(F)c1)CC1CC(C)C2C(O1)C(O)C1(C)C3CCC4C(C)(C)C(O)CCC45CC35CCC21C (stereo not shown) [drawing 1211],–,5.00 to 6.00,5.00 to 6.00,< 5.00,–
CC(=O)N(Cc1ccccn1)CC1CC(C)C2C(O1)C(O)C1(C)C3CCC4C(C)(C)C(O)CCC45CC35CCC21C (stereo not shown) [drawing 1212],–,< 5.00,< 5.00,< 5.00,–
CC(=O)N(CC1CC(C)C2C(O1)C(O)C1(C)C3CCC4C(C)(C)C(O)CCC45CC35CCC21C)C(C)C (stereo not shown) [drawing 1213],–,5.00 to 6.00,–,–,"% Inh. (range) ([2]; Aβ-42, 100 μM): E^b (100 μM) E^c (100 μM) (% inhibition of 25-75%); % Inh. (range) ([3]; Aβ-40, 100 μM): E^b (100 μM) E^c (100 μM) (% inhibition of 25-75%)"
CC1CC(C(OC(=O)C2CC2)C(C)(C)O)OC2C1C1(C)CCC34CC35CCC(O)C(C)(C)C5CCC4C1(C)C2O (stereo not shown) [drawing 1214],–,5.00 to 6.00,> 6.00,5.00 to 6.00,–
CC(=O)N(Cc1cc(F)cc(F)c1)CC1CC(C)C2C(O1)C(O)C1(C)C3CCC4C(C)(C)C(OC(=O)C5CNC5)CCC45CC35CCC21C (stereo not shown) [drawing 1215],5.00 to 6.00,5.00 to 6.00,5.00 to 6.00,5.00 to 6.00,pIC50 ([1]; read-out: IC50 range): 5.00 to 6.00; pIC50 ([3]; read-out: IC50 range): 5.00 to 6.00
CC1CC(C(OC(=O)C2CCC2)C(C)(C)O)OC2C1C1(C)CCC34CC35CCC(O)C(C)(C)C5CCC4C1(C)C2O (stereo not shown) [drawing 1216],–,5.00 to 6.00,> 6.00,5.00 to 6.00,–
